Measured values reported in paper PMC8347432 (2021).

Key:
[1] = test system: octamer duplex d(GCGATCGC)2 (3) (DNA, duplex) GCGATCGC; test: 1H NMR titration (chemical shift); settings: 25 mM NaCl, 25 mM K3PO4, D2O buffer, pH 6.0, 10 °C, 0.29 mM compound
[2] = test system: octamer duplex d(GCGATCGC)2 (3) (DNA, duplex) GCGATCGC; test: DOSY NMR (PGSE diffusion coefficients); settings: 25 mM NaCl, 25 mM K3PO4, D2O buffer, pH 6.4, 10 °C, 0.29 mM compound

Ka [1] [mM⁻¹]	Ka ([2]; 0.87 mM octamer) [mM⁻¹]	Ka ([1]; 5.89 ± 1.07 omitting H12 and H14) [mM⁻¹]	Ka ([2]; 0.92 mM octamer) [mM⁻¹]	Structure (SMILES)
3.76 ± 1.19	2.0 ± 0.3			CCc1c2c(nc3ccc(O)c(CN4CCC4)c13)-c1cc3c(c(=O)n1[C@@H]2CO)COC(=O)[C@]3(O)CC
		5.00 ± 2.02	5.9 ± 0.3	CCc1c2c(nc3ccc(O)c(CN4CCC4)c13)-c1cc3c(c(=O)n1[C@H]2CO)COC(=O)[C@]3(O)CC
